# Data: patent US12089591B2 (priority 2005, dated 2024)
# Values joined by “and” are separate entries in the source; they are usually repeats but may differ in a detail not shown here. Identical values can stand only once. Like-named read-outs stand apart in the source and are kept apart here.
# System: ROUNDUP READY FLEX cotton
# [1] = Table M1a, […], glyphosate 2520 g/ha, PMIDA 11.9 g/ha, control = no additive
# [2] = Table M1a, […], glyphosate 5040 g/ha, PMIDA 23.9 g/ha, control = no additive
# [3] = Table H2a, […], glyphosate 2520 g/ha, PMIDA 11.9 g/ha
# [4] = Table H2a, […], glyphosate 5040 g/ha, PMIDA 23.9 g/ha
# [5] = Table D1a Study 3, glyphosate:dye 100:1, glyphosate 2520 g/ha, PMIDA 11.9 g/ha
# [6] = Table D1a Study 3, glyphosate:dye 100:1, glyphosate 5040 g/ha, PMIDA 23.9 g/ha
# [7] = Table AO1a, […], glyphosate 2520 g/ha, PMIDA 11.9 g/ha
# [8] = Table AO1a, […], glyphosate 5040 g/ha, PMIDA 23.9 g/ha
# [9] = Table M3a, […], glyphosate 1260 g/ha, PMIDA 3.95 g/ha
# [10] = Table M3a, […], glyphosate 2520 g/ha, PMIDA 7.90 g/ha
# [11] = Table M3a, […], glyphosate 5040 g/ha, PMIDA 15.8 g/ha
# [12] = Table D1a Study 2, glyphosate:dye 10:1, glyphosate 2520 g/ha, PMIDA 11.9 g/ha
# [13] = Table D1a Study 2, glyphosate:dye 10:1, glyphosate 5040 g/ha, PMIDA 23.9 g/ha
# [14] = Table D1a Study 2, glyphosate:dye 100:1, glyphosate 2520 g/ha, PMIDA 11.9 g/ha
# [15] = Table D1a Study 2, glyphosate:dye 100:1, glyphosate 5040 g/ha, PMIDA 23.9 g/ha
# [16] = Table D1a Study 2, glyphosate:dye 1000:1, glyphosate 2520 g/ha, PMIDA 11.9 g/ha
# [17] = Table D1a Study 2, glyphosate:dye 1000:1, glyphosate 5040 g/ha, PMIDA 23.9 g/ha
compound,measurement,setting,value
"O.O.O.O.O.O.O.O=S(=O)([O-])[O-].[Mg+2] [Magnesium sulfate, Magnesium sulfate heptahydrate]",Necrosis Reduction Relative to Control,in vivo,0% and 6%
same,effect of metal salt on necrosis (in words),in vivo,relatively little impact
NC(N)=O [urea],Necrosis Reduction Relative to Control,"Table H1a Study 2, glycerin 4% v/v or urea 8% v/v, glyphosate 2520 g/ha, PMIDA 11.9 g/ha",36%
same,Necrosis Reduction Relative to Control,"Table H1a Study 2, glycerin 4% v/v or urea 8% v/v, glyphosate 5040 g/ha, PMIDA 23.9 g/ha",13%
same,reduction of necrosis (in words),in vivo,significantly reduced necrosis
"[Ca+2].[Cl-].[Cl-] [Calcium chloride, Calcium chloride (anhydrous)]",Necrosis Reduction Relative to Control,[1],32%
same,Necrosis Reduction Relative to Control,[2],6%
CC(C)CC(C)(O)C#CC(C)(O)CC(C)C (stereo not shown) [Surfynol 104A],Necrosis Reduction Relative to Control,[3],50%
same,Necrosis Reduction Relative to Control,[4],8%
same,decrease of necrosis (in words),in vivo,significantly decreased necrosis
COc1cc(S(=O)(=O)[O-])c(C)cc1N=Nc1c(O)ccc2cc(S(=O)(=O)[O-])ccc12.[Na+].[Na+] [FD&C Red #40],Necrosis Reduction Relative to Coontrol,[5],11%
same,Necrosis Reduction Relative to Coontrol,[6],0%
CCN(Cc1cccc(S(=O)(=O)[O-])c1)c1ccc(C(=C2C=CC(=[N+](CC)Cc3cccc(S(=O)(=O)[O-])c3)C=C2)c2ccc(O)cc2S(=O)(=O)[O-])cc1.[Na+].[Na+] [Fast Green FCF],Necrosis Reduction Relative to Coontrol,[5],2%
same,Necrosis Reduction Relative to Coontrol,[6],0%
OCCOCCO [Diethylene glycol],decrease of necrosis (in words),in vivo,significantly decreased necrosis
"CC(O)CC(C)(C)O (stereo not shown) [2-methyl-2,4-pentanediol]",decrease of necrosis (in words),in vivo,significantly decreased necrosis
"O=S([O-])[O-].[Na+].[Na+] [Sodium sulfite, sodium sulfite]",Necrosis Reduction Relative to Control,[7],39%
same,Necrosis Reduction Relative to Control,[8],0%
CCN(Cc1cccc(S(=O)(=O)[O-])c1)c1ccc(C(=C2C=CC(=[N+](C)C)C=C2)c2ccc(N(CC)Cc3cccc(S(=O)(=O)O)c3)cc2)cc1 [FD&C Violet #1],Necrosis Reduction Relative to Coontrol,[5],37%
same,Necrosis Reduction Relative to Coontrol,[6],0%
polyethylene glycol 200,decrease of necrosis (in words),in vivo,significantly decreased necrosis
Aluminum chloride hexahydrate,Necrosis Reduction Relative to Control,in vivo,95% and 71%
"O=C([O-])CN(CCN(CC(=O)[O-])CC(=O)[O-])CC(=O)[O-].[Fe+3].[Na+] [Iron + EDTA, iron(III) EDTA sodium salt hydrate]",Necrosis Reduction Relative to Control,[9],100%
same,Necrosis Reduction Relative to Control,[10],68%
same,Necrosis Reduction Relative to Control,[11],45%
same,"reduction in necrosis, comparison of iron sources (in words)",in vivo,significantly less effective
"O=C([O-])c1nn(-c2ccc(S(=O)(=O)[O-])cc2)c(O)c1N=Nc1ccc(S(=O)(=O)[O-])cc1.[Na+].[Na+].[Na+] [FD&C Yellow #5, 3-carboxy-5-hydroxy-1-p-sulfophenyl-4-p-sulfophenylazopyrazole trisodium salt]",Necrosis Reduction Relative to Coontrol,"Table D1a Study 1, glyphosate:dye 10:1, glyphosate 2520 g/ha, PMIDA 11.9 g/ha",96%
same,Necrosis Reduction Relative to Coontrol,"Table D1a Study 1, glyphosate:dye 10:1, glyphosate 5040 g/ha, PMIDA 23.9 g/ha",55%
same,Necrosis Reduction Relative to Coontrol,[12],84%
same,% necrosis (2 DAT),[13],38%
same,Necrosis Reduction Relative to Coontrol,[13],51%
same,% necrosis (2 DAT),[14],31%
same,Necrosis Reduction Relative to Coontrol,[14],18%
same,% necrosis (2 DAT),[15],55%
same,Necrosis Reduction Relative to Coontrol,[15],29%
same,% necrosis (2 DAT),[16],28%
same,Necrosis Reduction Relative to Coontrol,[16],26%
same,% necrosis (2 DAT),[17],69%
same,Necrosis Reduction Relative to Coontrol,[17],12%
same,decrease of PMIDA-induced necrosis by dye (in words),dye as safening agent in glyphosate spray solutions,significantly decrease
"O=C(O)CN(CC(=O)O)CP(=O)(O)O [PMIDA, N-(phosphonomethyl)iminodiacetic acid]",Maximum necrosis (plateau),"Example 1, highest application rate and higher levels of PMIDA",80-85%
[Cl][Fe]([Cl])[Cl] [Ferric chloride],Necrosis Reduction Relative to Control,[1],100%
same,Necrosis Reduction Relative to Control,[2],97%
OCC(O)CO [glycerin],Necrosis Reduction Relative to Control,"Table H1a Study 1, additive 2% v/v, glyphosate 2520 g/ha, PMIDA 11.9 g/ha",12%
same,Necrosis Reduction Relative to Control,"Table H1a Study 1, additive 2% v/v, glyphosate 5040 g/ha, PMIDA 23.9 g/ha",14%
same,Necrosis Reduction Relative to Control,"Table H1a Study 1, additive 4% v/v, glyphosate 2520 g/ha, PMIDA 11.9 g/ha",45%
same,Necrosis Reduction Relative to Control,"Table H1a Study 1, additive 4% v/v, glyphosate 5040 g/ha, PMIDA 23.9 g/ha",41%
same,reduction of necrosis (in words),in vivo,significantly reduced necrosis
CCC(CO)(CO)CO [trimethylol-propane],Necrosis Reduction Relative to Control,[3],0%
same,Necrosis Reduction Relative to Control,[4],0%
Nc1cc(S(=O)(=O)[O-])cc2cc(S(=O)(=O)[O-])c(N=Nc3ccccc3)c(O)c12.[Na+].[Na+] [FD&C Red #33],Necrosis Reduction Relative to Coontrol,[5],6%
same,Necrosis Reduction Relative to Coontrol,[6],0%
"OCCCCO [1,4-butanediol]",decrease of necrosis (in words),in vivo,significantly decreased necrosis
"COc1ccc(O)c(C(C)(C)C)c1 [butylated hydroxy anisole, butylated hydroxyanisole]",Necrosis Reduction Relative to Control,[7],80%
same,Necrosis Reduction Relative to Control,[8],29%
"O=C([O-])CC(O)(CC(=O)[O-])C(=O)[O-].[Fe+3] [Iron citrate, iron(III) citrate]",Necrosis Reduction Relative to Control,[9],100%
same,Necrosis Reduction Relative to Control,[10],97%
same,Necrosis Reduction Relative to Control,[11],75%
same,"reduction in necrosis, comparison of iron sources (in words)",in vivo,no significant difference
Zinc sulfate heptahydrate,effect of metal salt on necrosis (in words),in vivo,significantly reduce necrosis
"O=[N+]([O-])[O-].O=[N+]([O-])[O-].[Cu+2] [Cupric Nitrate, Cupric Nitrate (2.1) hydrate]",Necrosis Reduction Relative to Control,[1],92%
same,Necrosis Reduction Relative to Control,[2],68%
polyethylene glycol 900,decrease of necrosis (in words),in vivo,significantly decreased necrosis
"CC(O)C#CC(C)O (stereo not shown) [3-hexyne-2,5-diol]",decrease of necrosis (in words),in vivo,significantly decreased necrosis
CCN(Cc1cccc(S(=O)(=O)[O-])c1)c1ccc(C(=C2C=CC(=[N+](CC)Cc3cccc(S(=O)(=O)[O-])c3)C=C2)c2ccccc2S(=O)(=O)[O-])cc1.[Na+].[Na+] [FD&C Blue #1],Necrosis Reduction Relative to Coontrol,[12],66%
same,% necrosis (2 DAT),[13],46%
same,Necrosis Reduction Relative to Coontrol,[13],41%
